Measurements taken from ChEMBL document CHEMBL3046616, “Design, synthesis, and biological activities of milbemycin analogues” (2011).
Converted amounts (≈) assume the structure as drawn.

Tests used:
Type in all cases: functional
Mythimna separata [1] = assay: Insecticidal activity against fourth-instar larvae of Mythimna separata (Oriental armyworm) reared on compound pre-treated corn leaves assessed as insect mortality at 0.0625 mg/L measured 2 days post compound dose
Mythimna separata [2] = assay: Insecticidal activity against Mythimna separata (Oriental armyworm) fourth-instar larvae reared compound pre-treated corn leaves assessed as insect mortality at 1 mg/L measured 2 days post compound dose
Tetranychus cinnabarinus = assay: Insecticidal activity against Tetranychus cinnabarinus (carmine spider mite) […] assessed as larvicidal activity at 0.006 mg/L after 48 hr
Aphis fabae [3] = assay: Insecticidal activity against Aphis fabae (black bean aphid) infested soybean tender shoots at 0.0625 mg/L measured 48 hr post compound dose by modified FAO dip method
Aphis fabae [4] = assay: Insecticidal activity against Aphis fabae (black bean aphid) infested soybean tender shoots at 0.25 mg/L measured 48 hr post compound dose by modified FAO dip method
Mythimna separata [5] = assay: Insecticidal activity against Mythimna separata (Oriental armyworm) fourth-instar larvae reared compound pre-treated corn leaves assessed as insect mortality at 10 mg/L measured 2 days post compound dose
Mythimna separata [6] = assay: Insecticidal activity against Mythimna separata (Oriental armyworm) fourth-instar larvae reared compound pre-treated corn leaves assessed as insect mortality measured 2 days post compound dose
Mythimna separata [7] = assay: Insecticidal activity against fourth-instar larvae of Mythimna separata (Oriental armyworm) reared on compound pre-treated corn leaves assessed as insect mortality at 0.125 mg/L measured 2 days post compound dose
Aphis fabae [8] = assay: Insecticidal activity against Aphis fabae (black bean aphid) infested soybean tender shoots at 2 mg/L measured 48 hr post compound dose by modified FAO dip method
Aphis fabae [9] = assay: Insecticidal activity against Aphis fabae (black bean aphid) infested soybean tender shoots at 0.5 mg/L measured 48 hr post compound dose by modified FAO dip method
Mythimna separata [10] = assay: Insecticidal activity against fourth-instar larvae of Mythimna separata (Oriental armyworm) reared on compound pre-treated corn leaves assessed as insect mortality at 0.03125 mg/L measured 2 days post compound dose
Aphis fabae [11] = assay: Insecticidal activity against Aphis fabae (black bean aphid) infested soybean tender shoots at 1 mg/L measured 48 hr post compound dose by modified FAO dip method
Aphis fabae [12] = assay: Insecticidal activity against Aphis fabae (black bean aphid infested soybean tender shoots measured 48 hr post compound dose by modified FAO dip method
Mythimna separata [13] = assay: Insecticidal activity against Mythimna separata (Oriental armyworm) fourth-instar larvae reared compound pre-treated corn leaves assessed as insect mortality at 0.5 mg/L measured 2 days post compound dose
Aphis fabae [14] = assay: Insecticidal activity against Aphis fabae (black bean aphid) infested soybean tender shoots at 0.125 mg/L measured 48 hr post compound dose by modified FAO dip method
Aphis fabae [15] = assay: Insecticidal activity against Aphis fabae (black bean aphid) infested soybean tender shoots at 10 mg/L measured 48 hr post compound dose by modified FAO dip method
Mythimna separata [16] = assay: Insecticidal activity against Mythimna separata (Oriental armyworm) fourth-instar larvae reared compound pre-treated corn leaves assessed as insect mortality at 0.25 mg/L measured 2 days post compound dose
Mythimna separata [17] = assay: Insecticidal activity against Mythimna separata (Oriental armyworm) fourth-instar larvae reared compound pre-treated corn leaves assessed as insect mortality at 2.5 mg/L measured 2 days post compound dose
Mythimna separata [18] = assay: Insecticidal activity against Mythimna separata (Oriental armyworm) fourth-instar larvae reared compound pre-treated corn leaves assessed as insect mortality at 0.625 mg/L measured 2 days post compound dose
Aphis fabae [19] = assay: Insecticidal activity against Aphis fabae (black bean aphid) infested soybean tender shoots measured 48 hr post compound dose by modified FAO dip method; design: concentration or dose not given beside the values
Aphis fabae [20] = assay: Insecticidal activity against Aphis fabae (black bean aphid) infested soybean tender shoots at 2.5 mg/L measured 48 hr post compound dose by modified FAO dip method
Aphis fabae [21] = assay: Insecticidal activity against Aphis fabae (black bean aphid) infested soybean tender shoots at 0.625 mg/L measured 48 hr post compound dose by modified FAO dip method
Aphis fabae [22] = assay: Insecticidal activity against bean Aphis fabae (black bean aphid) infested soybean tender shoots at 0.03125 mg/L measured 48 hr post compound dose by modified FAO dip method
Mythimna separata [23] = assay: Insecticidal activity against Mythimna separata (Oriental armyworm) fourth-instar larvae reared compound pre-treated corn leaves assessed as insect mortality at 200 mg/L measured 2 days post compound dose

Compound	mortality at 0.006 µg/mL (Tetranychus cinnabarinus) [%]	mortality at 10 µg/mL (Mythimna separata [5]) [%]	mortality at 10 µg/mL (Aphis fabae [15]) [%]	mortality at 2.5 µg/mL (Mythimna separata [17]) [%]	mortality at 0.625 µg/mL (Mythimna separata [18]) [%]	mortality (Aphis fabae [19]) [%]	mortality at 2.5 µg/mL (Aphis fabae [20]) [%]	mortality at 0.625 µg/mL (Aphis fabae [21]) [%]	also measured
CCC(C)[C@H]1O[C@]2(CC[C@@H]1C)C[C@@H]1C[C@@H](C/C=C(\C)[C@@H](OC(=O)C(C)(C)CC)[C@@H](C)/C=C/C=C3\CO[C@@H]4[C@H](O)C(C)=C[C@@H](C(=O)O1)[C@]34O)O2 (stereo partly specified)	60.7	100	100						mortality at 0.0625 µg/mL (Mythimna separata [1]): 0%; mortality at 1 µg/mL (Mythimna separata [2]): 96.9%; mortality at 0.0625 µg/mL (Aphis fabae [3]): 38%; mortality at 0.25 µg/mL (Aphis fabae [4]): 57.6%; LC50 (Mythimna separata [6]): 0.25 µg/mL (≈ 0.365 µM); mortality at 0.125 µg/mL (Mythimna separata [7]): 16.7%; mortality at 2 µg/mL (Aphis fabae [8]): 92.9%; mortality at 0.5 µg/mL (Aphis fabae [9]): 68.2%; mortality at 0.03125 µg/mL (Mythimna separata [10]): 0%; mortality at 1 µg/mL (Aphis fabae [11]): 85.4%; LC50 (Aphis fabae [12]; Aphis fabae, 48 h): 0.15 µg/mL (≈ 0.219 µM); mortality at 0.5 µg/mL (Mythimna separata [13]): 75.2%; mortality at 0.125 µg/mL (Aphis fabae [14]): 45.5%; mortality at 0.25 µg/mL (Mythimna separata [16]): 60%
CCC(C)[C@H]1O[C@]2(CC[C@@H]1C)C[C@@H]1C[C@@H](C/C=C(\C)[C@@H](OC(=O)C3C(C=C(Cl)Cl)C3(C)C)[C@@H](C)/C=C/C=C3\CO[C@@H]4[C@H](O)C(C)=C[C@@H](C(=O)O1)[C@]34O)O2 (stereo partly specified)	31.7	6.7		6.4	3.3	87.9			
CCC(C)[C@H]1O[C@]2(CC[C@@H]1C)C[C@@H]1C[C@@H](C/C=C(\C)[C@@H](OC(=O)c3ccc(Cl)cc3)[C@@H](C)/C=C/C=C3\CO[C@@H]4[C@H](O)C(C)=C[C@@H](C(=O)O1)[C@]34O)O2 (stereo partly specified)	26.9	100		24.9	0	87.9			
CCC(C)[C@H]1O[C@]2(CC[C@@H]1C)C[C@@H]1C[C@@H](C/C=C(\C)[C@@H](O[C@H]3C[C@H](OC)[C@@H](OC(=O)c4ccccc4)[C@H](C)O3)[C@@H](C)/C=C/C=C3\CO[C@@H]4[C@H](O)C(C)=C[C@@H](C(=O)O1)[C@]34O)O2 (stereo partly specified)	24.8	100	100	100	38.8		100	86.3	
CCC(C)[C@H]1O[C@]2(CC[C@@H]1C)C[C@@H]1C[C@@H](C/C=C(\C)[C@@H](O[C@H]3C[C@H](OC)[C@@H](OC(=O)c4ccc(F)cc4)[C@H](C)O3)[C@@H](C)/C=C/C=C3\CO[C@@H]4[C@H](O)C(C)=C[C@@H](C(=O)O1)[C@]34O)O2 (stereo partly specified)	9.9	55.8	100	16.7	0		100	97.1	
CCC(C)[C@H]1O[C@]2(CC[C@@H]1C)C[C@@H]1C[C@@H](C/C=C(\C)[C@@H](O[C@H]3C[C@H](OC)[C@@H](OC(=O)CC(C)(C)C)[C@H](C)O3)[C@@H](C)/C=C/C=C3\CO[C@@H]4[C@H](O)C(C)=C[C@@H](C(=O)O1)[C@]34O)O2 (stereo partly specified)	34.2	88.6	80.2	51.2	0		30.2	0	
CCC(C)[C@H]1O[C@]2(CC[C@@H]1C)C[C@@H]1C[C@@H](C/C=C(\C)[C@@H](O[C@H]3C[C@H](OC)[C@@H](OC(=O)Cc4ccccc4)[C@H](C)O3)[C@@H](C)/C=C/C=C3\CO[C@@H]4[C@H](O)C(C)=C[C@@H](C(=O)O1)[C@]34O)O2 (stereo partly specified)	14.3								mortality at 0.0625 µg/mL (Mythimna separata [1]): 10.1%; mortality at 1 µg/mL (Mythimna separata [2]): 100%; mortality at 0.0625 µg/mL (Aphis fabae [3]): 3.3%; mortality at 0.25 µg/mL (Aphis fabae [4]): 65.8%; LC50 (Mythimna separata [6]): 0.204 µg/mL (≈ 0.24 µM); mortality at 0.03125 µg/mL (Aphis fabae [22]): 0%; mortality at 0.125 µg/mL (Mythimna separata [7]): 20.5%; mortality at 0.5 µg/mL (Aphis fabae [9]): 86.7%; mortality at 0.03125 µg/mL (Mythimna separata [10]): 0%; mortality at 1 µg/mL (Aphis fabae [11]): 100%; LC90 (Aphis fabae [12]): 0.742 mg/L (≈ 0.874 µM); LC50 (Aphis fabae [12]; Aphis fabae, 48 h): 0.07 µg/mL (≈ 0.0824 µM); mortality at 0.5 µg/mL (Mythimna separata [13]): 90.2%; mortality at 0.125 µg/mL (Aphis fabae [14]): 31.2%; mortality at 0.25 µg/mL (Mythimna separata [16]): 60.3%
CCC(C)[C@H]1O[C@]2(CC[C@@H]1C)C[C@@H]1C[C@@H](C/C=C(\C)[C@@H](O[C@H]3C[C@H](OC)[C@@H](OC(=O)C(C)(C)CC)[C@H](C)O3)[C@@H](C)/C=C/C=C3\CO[C@@H]4[C@H](O)C(C)=C[C@@H](C(=O)O1)[C@]34O)O2 (stereo partly specified)	39.6			83.6	0		100	89.1	
CCC(C)[C@H]1O[C@]2(CC[C@@H]1C)C[C@@H]1C[C@@H](C/C=C(\C)[C@@H](OC(=O)c3cc(F)c(Cl)nc3Cl)[C@@H](C)/C=C/C=C3\CO[C@@H]4[C@H](O)C(C)=C[C@@H](C(=O)O1)[C@]34O)O2 (stereo partly specified)	7.7		66.9				38.2	8.3	mortality at 200 µg/mL (Mythimna separata [23]): 50.9%
CCC(C)[C@H]1O[C@]2(CC[C@@H]1C)C[C@@H]1C[C@@H](C/C=C(\C)[C@@H](O[C@H]3C[C@H](OC)[C@@H](OC(=O)c4ccc(Cl)cc4)[C@H](C)O3)[C@@H](C)/C=C/C=C3\CO[C@@H]4[C@H](O)C(C)=C[C@@H](C(=O)O1)[C@]34O)O2 (stereo partly specified)	32.3	93.9		16.7	0	100			
CCC(C)[C@H]1O[C@]2(CC[C@@H]1C)C[C@@H]1C[C@@H](C/C=C(\C)[C@@H](O[C@H]3C[C@H](OC)[C@@H](OC(=O)/C(=N\OC)c4ccccc4)[C@H](C)O3)[C@@H](C)/C=C/C=C3\CO[C@@H]4[C@H](O)C(C)=C[C@@H](C(=O)O1)[C@]34O)O2 (stereo partly specified)	38.7								mortality at 0.0625 µg/mL (Mythimna separata [1]): 0%; mortality at 1 µg/mL (Mythimna separata [2]): 100%; mortality at 0.0625 µg/mL (Aphis fabae [3]): 0%; mortality at 0.25 µg/mL (Aphis fabae [4]): 34.2%; LC50 (Mythimna separata [6]): 0.35 µg/mL (≈ 0.392 µM); mortality at 0.125 µg/mL (Mythimna separata [7]): 6.3%; mortality at 0.5 µg/mL (Aphis fabae [9]): 70%; mortality at 0.03125 µg/mL (Mythimna separata [10]): 0%; mortality at 1 µg/mL (Aphis fabae [11]): 100%; LC50 (Aphis fabae [12]; Aphis fabae, 48 h): 0.12 µg/mL (≈ 0.135 µM); mortality at 0.5 µg/mL (Mythimna separata [13]): 80%; mortality at 0.125 µg/mL (Aphis fabae [14]): 3.3%; mortality at 0.25 µg/mL (Mythimna separata [16]): 30.2%
CCC(C)[C@H]1O[C@]2(CC[C@@H]1C)C[C@@H]1C[C@@H](C/C=C(\C)[C@@H](O[C@H]3C[C@H](OC)[C@@H](OC(=O)Nc4cccc(C)c4)[C@H](C)O3)[C@@H](C)/C=C/C=C3\CO[C@@H]4[C@H](O)C(C)=C[C@@H](C(=O)O1)[C@]34O)O2 (stereo partly specified)	49.2	100	100	98.6	56.3		100	88.5	
CCC(C)[C@H]1O[C@]2(CC[C@@H]1C)C[C@@H]1C[C@@H](C/C=C(\C)[C@@H](OC(=O)Nc3cccc(C)c3)[C@@H](C)/C=C/C=C3\CO[C@@H]4[C@H](O)C(C)=C[C@@H](C(=O)O1)[C@]34O)O2 (stereo partly specified)	56.6	98.6	100	76.7	43.2		98.9	86.1	
CCC(C)[C@H]1O[C@]2(CC[C@@H]1C)C[C@@H]1C[C@@H](C/C=C(\C)[C@@H](OC(=O)c3ccccc3OC)[C@@H](C)/C=C/C=C3\CO[C@@H]4[C@H](O)C(C)=C[C@@H](C(=O)O1)[C@]34O)O2 (stereo partly specified)	19.5	97		77.3	19.7	68.6			
IVERMECTIN									mortality (Mythimna separata [1]): 6.4%; mortality (Mythimna separata [2]): 100%; mortality (Tetranychus cinnabarinus): 57.9%; mortality (Aphis fabae [3]): 53.6%; mortality (Aphis fabae [4]): 74.1%; LC50 (Mythimna separata [6]): 0.19 µg/mL; mortality (Mythimna separata [7]): 29.1%; mortality (Aphis fabae [8]): 100%; mortality (Aphis fabae [9]): 89.1%; mortality (Mythimna separata [10]): 0%; mortality (Aphis fabae [11]): 93.5%; LC50 (Aphis fabae [12]): 0.06 µg/mL; LC90 (Aphis fabae [12]): 0.646 mg/L; mortality (Mythimna separata [13]): 90.9%; mortality (Aphis fabae [14]): 66.3%; mortality (Mythimna separata [16]): 66.7%
CCC(C)[C@H]1O[C@]2(CC[C@@H]1C)C[C@@H]1C[C@@H](C/C=C(\C)[C@@H](O[C@H]3C[C@H](OC)[C@@H](OC(=O)c4ccc(F)cc4)[C@H](C)O3)[C@@H](C)/C=C/C=C3\CO[C@@H]4/C(=N/OC)C(C)=C[C@@H](C(=O)O1)[C@]34O)O2 (stereo partly specified)	11.1					11.2			mortality at 200 µg/mL (Mythimna separata [23]): 0%
